Laboratory results from PMC9699072 (Molecules, 2022).
Values joined by “and” are separate entries in the source; they are usually repeats but may differ in a detail not shown here. Equal entries are not always repeated. Structures can show the parent of a compound that is named as a salt.

Key:
[1] = ABTS radical cation scavenging (decolorization) assay; format: biochemical; conditions: mean ± SEM, n = 3; for ABTS TEAC (Trolox equivalent antioxidant capacity): 1 h incubation, relative to Trolox; for IC50: 1 h, read-out: ABTS IC50 (compound concentration required for 50% reduction of the ABTS radical-cation) (converted)
Experimental: The ABTS assay is based on the direct quenching of the ABTS cation radical (ABTS^•+) by antioxidants. The assay is carried out by spectrophotometric determination of a decrease in absorbance of a stable dark green ABTS^•+ solution after its interaction with an antioxidant compound [56]. The measurements were performed as previously described in detail. The results are expressed as TEAC values (Trolox equivalent antioxidant capacity) and IC50 values (compound concentration required for 50% reduction of the ABTS radical).
Radical scavenging activity of the compounds was assessed using the ABTS radical cation (ABTS^•+) decolorization assay with some modifications. ABTS (2,2′-azinobis-(3-ethylbenzothiazoline-6-sulfonic acid)) was purchased from Tokyo Chemical Industry Co., Ltd. (Tokyo, Japan), and potassium persulfate (dipotassium peroxodisulfate), Trolox (6-hydroxy-2,5,7,8-tetramethylchroman-2-carboxylic acid), and HPLC-grade ethanol and DMSO were obtained from Sigma-Aldrich (Saint Louis, MO, USA). Aqueous solutions were prepared using deionized water. All test compounds were dissolved in DMSO.
The solution of cation radical ABTS^•+ was produced by incubation of an aqueous solution of 7 mM ABTS and 2.45 mM potassium persulfate solution in equal quantities for 12–16 h at room temperature in the dark. Radical scavenging capacity of the compounds was analyzed by mixing 10 μL of compound with 240 μL of ABTS^•+ working solution in ethanol (100 μM final concentration). Data were given for 1 h of incubation of compounds with ABTS^•+. The reduction in absorbance was measured spectrophotometrically at 734 nm using an xMark microplate UV/VIS microplate spectrophotometer (Bio-Rad, Hercules, CA, USA).
Ethanol blanks were run in each assay. Values were obtained from three replicates of each sample and three independent experiments.
Standard antioxidant Trolox was used as a reference compound. Antioxidant capacity as Trolox equivalent (TEAC) values was determined as the ratio between the slopes obtained from the linear correlation of the ABTS radical absorbance with the concentrations of tested compounds and Trolox. Quercetin was used as a positive control. For the test compounds that reduced ABTS^•+ absorbance by more than 60% at 100 µM, we also determined the IC50 values (the compound concentration required for a 50% reduction of the ABTS radical). The compounds were tested in the concentration range of 0.5–400 µM.

[2] = ORAC-FL (oxygen radical absorbance capacity) assay; format: biochemical; conditions: mean ± SEM, n = 3, 2 h, 10 μM compound and Trolox
Source text: In the oxygen radical absorbance capacity (ORAC-FL) assay, 2,2′-azobis-(2-methylpropionamidine) dihydrochloride (AAPH) is used as a free peroxyl radical generator, and fluorescein (FL) is used as a fluorescent probe. The method is based on measuring the decrease in the intensity of fluorescence with time, which characterizes the degree of decay of the fluorescent probe under the influence of peroxyl radicals. In the presence of antioxidants, the degree of decay of the fluorescent probe decreases and, accordingly, the fluorescence intensity increases. The results are expressed as TE (Trolox equivalents).
The ORAC assay utilizes a biologically relevant radical source, 2,2′-azobis(2-amidinopropane) dihydrochloride (AAPH)-derived peroxyl radicals. Thus, it is a more physiologically relevant assay than ABTS and FRAP.
The oxygen radical absorbance capacity (ORAC) was determined by the ability of compounds to protect fluorescein (FL) from peroxyl radicals that are generated by AAPH according to the known method with minor variations. The reaction was carried out at 37 °C in black 96-well plates (SPL life sciences), and the final volume of the reaction mixture was 200 µL per well. The fluorescence was recorded by Tecan M1000 PRO microplate reader (Switzerland) at 485 nm excitation and 520 nm emission.
The 0.7 mM fluorescein sodium salt stock solution in PBS pH 7.4 (137 mM sodium chloride, 2.7 mM potassium chloride, and 10 mM phosphate buffer) was prepared and stored at 4–5 °C no longer than one month. An aliquot of the fluorescein stock solution was further diluted with PBS immediately before each assay to yield a 70 nM working solution. The 133 mM AAPH solution in PBS was prepared immediately before use. The test compounds and Trolox standard were dissolved in DMSO to 400 μM. The final concentration was 10 μM for all of the samples.
The blank was composed of 15 μL PBS pH 7.4, 5 μL DMSO (final concentration: 2.5% (v/v)), 120 μL FL, and 60 μL AAPH, and it was included in each assay. PBS pH 7.4 (15 μL), antioxidant (the test compound or Trolox, 5 μL), and FL (120 μL, final concentration: 42 nM) solutions were placed in a black 96-well microplate and were pre-incubated for 15 min at 37 °C. AAPH solution (60 μL, final concentration 40 mM) was then added rapidly using a multichannel pipette. The fluorescence was recorded every minute for 2 h. A Trolox standard curve was also obtained in each assay. All reactions were carried out in quadruplicate, and two to four independent assays were performed for each sample.
Antioxidant curves (fluorescence vs. time) were first normalized to the curve of the blank (without antioxidant) corresponding to the same assay, and the net AUC corresponding to a sample was calculated by subtracting the AUC corresponding to the blank. The ORAC value was obtained by dividing the latter curve by the Trolox curve obtained in the same assay at 10 μM concentrations of compounds and Trolox. Final ORAC values, Trolox equivalents (TE), were expressed as μmol test compounds per μmol Trolox, where the value of TE for Trolox was taken as 1. Data were expressed as means ± SEM.

| Compound | ABTS TEAC (Trolox equivalent antioxidant capacity) [1] | ORAC-FL TE (Trolox equivalent) [2] | IC50 [1] [µM] | ABTS TEAC (Trolox equivalent antioxidant capacity) ([1]; listed as APH) [TEAC] | ORAC-FL TE (Trolox equivalent) ([2]; listed as APH) [TE] |
| --- | --- | --- | --- | --- | --- |
| CC1=NNC(=O)/C1=N\O [1j] | 0.2 ± 0.03 (n.d.) TEAC | 2.85 ± 0.28 TE | – | – | – |
| 3-methyl-1-phenyl-2-pyrazolin-5-one [EDA, reference compound] | 0.96 ± 0.04 TEAC | 3.71 TE and 3.71 ± 0.06 TE | 21.4 | – | – |
| Nc1c(C(F)(F)C(F)(F)C(F)(F)C(F)(F)F)nn(-c2ccccc2)c1O [4c, 5-Hydroxy-1-phenyl-3-(nonafluorobuthyl)-1H-pyrazol-4-ammonium hydrochloride] | 0.85 ± 0.04 TEAC | 2.82 ± 0.2 TE | 23.4 | – | – |
| O=C1NN=C(C(F)(F)C(F)(F)F)/C1=N/O [1g] | 0.13 ± 0.04 (n.d.) TEAC | 1.87 ± 0.04 TE | – | – | – |
| Cl.Nc1c(C(F)(F)C(F)(F)F)nn(-c2ccccc2)c1O.O [4b, 4-Amino-3-(pentafluoroethyl)-1-phenyl-1H-pyrazol-5-ol hydrate hydrochloride] | 0.6 ± 0.03 TEAC | 2.12 ± 0.17 TE | 34.1 | – | – |
| Cl.Nc1c(C(F)(F)C(F)(F)F)n[nH]c1O.O [4g, 4-Amino-3-(pentafluoroethyl)-1H-pyrazol-5-ol hydrate hydrochloride] | 0.73 ± 0.03 TEAC | 0.54 ± 0.03 TE | 25.7 | – | – |
| Cl.Nc1c(C(F)(F)F)n[nH]c1O [4e, 4-Amino-3-(trifluoromethyl)-1H-pyrazol-5-ol hydrochloride] | 0.92 ± 0.04 TEAC | 0.90 ± 0.19 TE | 21.2 | – | – |
| Cc1n[nH]c(O)c1N.Cl [4j, 4-Amino-3-methyl-1H-pyrazol-5-ol hydrochloride] | 0.95 ± 0.04 TEAC | 2.06 ± 0.16 TE | 20.1 | – | – |
| Cl.Nc1c(C(F)(F)F)nn(-c2ccccc2)c1O [4a, 4-Amino-3-(trifluoromethyl)-1-phenyl-1H-pyrazol-5-ol hydrochloride] | 0.75 ± 0.04 TEAC | 3.49 TE and 3.49 ± 0.16 TE | 27.2 | – | – |
| Cl.Nc1c(C(F)(F)C(F)(F)C(F)(F)C(F)(F)F)n[nH]c1O.O [4i, 4-Amino-3-(nonafluorobutyl)-1H-pyrazol-5-ol hydrate hydrochloride] | 0.45 ± 0.02 TEAC | 1.83 ± 0.02 TE | 40.8 | – | – |
| Oc1cc(C(F)(F)F)nn1-c1ccccc1 [CF3-EDA, 3-trifluoromethyl-1-phenylpyrazol-5-ol, reference compound] | 0.95 ± 0.04 TEAC | 3.89 TE and 3.89 ± 0.04 TE | 21.4 | – | – |
| Cc1nn(-c2ccccc2)c(O)c1N.Cl.O [4d, 4-Amino-3-methyl-1-phenyl-1H-pyrazol-5-ol hydrochloride hydrate] | 0.93 ± 0.03 TEAC | 4.39 ± 0.04 TE | 23.3 | 0.93 | 4.39 |
| O=C1NN=C(C(F)(F)F)/C1=N/O [1e] | 0.23 ± 0.01 (n.d.) TEAC | 0.98 ± 0.03 TE | – | – | – |
| Cl.Nc1c(C(F)(F)C(F)(F)C(F)(F)F)n[nH]c1O.O [4h, 4-Amino-3-(heptafluoropropyl)-1H-pyrazol-5-ol hydrate hydrochloride] | 0.78 ± 0.04 TEAC | 0.63 ± 0.04 TE | 24.8 | – | – |
